Columns and labels:
[1] = system: Plasma; experiment: Inhibition of ADP-induced platelet aggregation in human platelet-rich plasma by Born's method
[2] = target: Integrin alpha-IIb/beta-3 (Homo sapiens); experiment: Displacement of FITC-Fg from integrin alphaIIbbeta3 receptor expressed in human activated platelets

Row | IC50 [1] | IC50 [2] | Compound
1 | 0.017 µM | 0.0008 µM | COc1ccc(C(CC(=O)O)NC(=O)c2cccc(C(=O)Nc3ccc4c(c3)CNCC4)c2)cc1 (stereo unspecified)
2 | 2.3 µM | 0.032 µM | O=C(O)CCNC(=O)c1cc(C(=O)Nc2ccc3c(c2)CNCC3)cc([N+](=O)[O-])c1
3 | 0.078 µM | 0.009 µM | O=C(O)CCNC(=O)c1cccc(C(=O)Nc2ccc3c(c2)CNCC3)c1
4 | 0.0116 µM | 0.0007 µM | COc1ccc(C(CC(=O)O)NC(=O)c2cccc(C(=O)Nc3ccc4c(c3)CNCC4)c2)cc1OC (stereo unspecified)
5 | 0.71 µM | 0.008 µM | O=C(O)CC(NC(=O)c1cc(C(=O)Nc2ccc3c(c2)CNCC3)cc([N+](=O)[O-])c1)c1ccccc1 (stereo unspecified)
6 | 0.025 µM | 0.001 µM | O=C(O)CC(NC(=O)c1cccc(C(=O)Nc2ccc3c(c2)CNCC3)c1)c1ccccc1 (stereo unspecified)
7 | 0.34 µM | 0.0037 µM | COc1ccc(C(CC(=O)O)NC(=O)c2cc(C(=O)Nc3ccc4c(c3)CNCC4)cc([N+](=O)[O-])c2)cc1OC (stereo unspecified)
8 | 0.45 µM | 0.005 µM | COc1ccc(C(CC(=O)O)NC(=O)c2cc(C(=O)Nc3ccc4c(c3)CNCC4)cc([N+](=O)[O-])c2)cc1 (stereo unspecified)

Reference: ChEMBL document CHEMBL1137247, “Derivatives of 7-amino-1,2,3,4-tetrahydroisoquinoline and isophthalic acids as novel fibrinogen receptor antagonists” (Bioorg Med Chem Lett, 2006)
